Experimental data from patent US20260209247A1, “Substituted Tricyclic Compounds” (Lupin Limited, priority 2019, published 2026).

How the values were obtained:
[1] = target: T1, protein-protein interaction between hSOS1 and hKRASG12C (Homo sapiens, UniProt Q07889); assay: KRAS-SOS1 interaction assay (HTRF); type: binding; conditions: GST-hSOS1 564-1049aa, HIS-hKRASG12C, read-out: KRAS-SOS1 Interaction inhibition IC50
T1 construct: GST-hSOS1, 564-1049aa expressed and purified in-house
T1 sequence (Q07889 564-1049): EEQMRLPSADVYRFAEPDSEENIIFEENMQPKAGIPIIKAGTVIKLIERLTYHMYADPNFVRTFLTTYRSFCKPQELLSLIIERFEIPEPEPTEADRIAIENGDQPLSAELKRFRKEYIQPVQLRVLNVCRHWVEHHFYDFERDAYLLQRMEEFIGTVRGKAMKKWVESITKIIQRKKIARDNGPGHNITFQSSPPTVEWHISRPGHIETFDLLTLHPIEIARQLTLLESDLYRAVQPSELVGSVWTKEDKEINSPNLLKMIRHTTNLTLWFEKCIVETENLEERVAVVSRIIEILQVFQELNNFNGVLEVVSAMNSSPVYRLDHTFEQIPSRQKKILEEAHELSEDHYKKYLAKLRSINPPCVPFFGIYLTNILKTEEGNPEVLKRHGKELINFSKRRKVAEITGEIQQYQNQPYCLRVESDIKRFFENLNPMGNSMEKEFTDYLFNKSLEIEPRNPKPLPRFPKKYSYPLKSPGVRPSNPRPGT
How it was run: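 GST-hSOS1 (564-1049aa) at 10-50 nM working solution pre-incubated with compounds 10 min at 20° C in HEPES pH 7.4 buffer with EDTA, DTT, BSA and Igepal. HIS-hKRASG12C (100-300 nM working solution) added for 30-60 min, then anti-GST-d2/anti-HIS-Tb detection; percent inhibition from the 665/620 nm ratio.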

[2] = system: pERK after EGF stimulation in DLD1 cells; assay: ERK phosphorylation assay (alphascreen pERK); type: cell-based; conditions: Homo sapiens, DLD-1, 2 h compound, 200 ng/ml hEGF for 5 minutes, read-out: ERK phosphorylation inhibition IC50
How it was run: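 DLD1 cells pretreated with test compounds for 2 h, then stimulated with 200 ng/ml hEGF for 5 min. Lysates assayed by AlphaScreen SureFire for ERK1/2 p-T202/Y204, read after 2 h at 25–28 °C. % inhibition relative to the stimulated-minus-unstimulated vehicle window.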

[3] = target: T2, nucleotide exchange on hKRASG12C mediated by hSOS1 (Homo sapiens, UniProt Q07889); assay: Guanine nucleotide exchange assay (GNEA, HTRF); type: biochemical; conditions: HIS-hSOS1 564-1049aa mediated GTP loading onto GST-hKRASG12C 1-169aa, read-out: Guanine nucleotide exchange inhibition IC50
T2 construct: HIS-hSOS1, 564-1049aa mediated GTP loading onto GST-hKRASG12C; His (N); made in house
T2 sequence (Q07889 564-1049): T1 sequence (Q07889 564-1049)
How it was run: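 Compounds were pre-incubated 10 min at 20 °C with HIS-hSOS1 (564-1049aa) and EDA-GTP-DY-647P1 (working solution 10-50 nM and 200 nM) in pH 7.4 HEPES with NaCl, MgCl2, DTT, BSA and Igepal. GST-hKRASG12C (1-169aa, 25-125 nM working solution) plus anti-GST-Tb was added for 30-60 min at 20 °C. Percent inhibition came from the HTRF 665/620 nm ratio.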

Structure (SMILES) | IC50 [1] | IC50 [2] | IC50 [3]
CCN1C(=O)COc2cc3nc(C)nc(N[C@H](C)c4cccc(C(F)(F)CO)c4F)c3cc21 [Compound 13, (R)-4-((1-(3-(1,1-difluoro-2-hydroxyethyl)-2-fluorophenyl)ethyl)amino)-6-ethyl-2-methyl-6H-[1,4]oxazino[3,2-g]quinazolin-7(8H)-one] | 0.001 to 0.01 µM | 0.001 to 0.2 µM | 0.001 to 0.03 µM
Cc1nc(N[C@H](C)c2cccc(C(F)(F)CO)c2F)c2cc3c(cc2n1)OC(C)(C)C(=O)N3C [Compound 18, (R)-4-((1-(3-(1,1-difluoro-2-hydroxyethyl)-2-fluorophenyl)ethyl)amino)-2,6,8,8-tetramethyl-6H-[1,4]oxazino[3,2-g]quinazolin-7(8H)-one] | 0.001 to 0.01 µM | 0.001 to 0.2 µM | 0.001 to 0.03 µM
Cc1nc(N[C@H](C)c2cccc(C(F)(F)CO)c2F)c2cc3c(cc2n1)OC1(CC1)C(=O)N3C [Compound 25, (R)-4′-((1-(3-(1,1-difluoro-2-hydroxyethyl)-2-fluorophenyl)ethyl)amino)-2′,6′-dimethylspiro[cyclopropane-1,8′-[1,4]oxazino[3,2-g]quinazolin]-7′(6′H)-one] | 0.001 to 0.01 µM | 0.001 to 0.2 µM | 0.001 to 0.03 µM
Cc1nc(N[C@H](C)c2cccc(C(F)(F)C(C)(C)O)c2F)c2cc3c(cc2n1)N(C)C(C)(C)C(=O)N3C [Compound 28, (R)-4-((1-(3-(1,1-difluoro-2-hydroxy-2-methylpropyl)-2-fluorophenyl)ethyl)amino)-2,6,8,8,9-pentamethyl-8,9-dihydropyrazino[2,3-g]quinazolin-7(6H)-one] | 0.001 to 0.01 µM | 0.001 to 0.2 µM | 0.001 to 0.03 µM
Cc1nc(N[C@H](C)c2cccc(C(F)(F)C(C)(C)O)c2F)c2cc3c(cc2n1)c(=O)n(C)c(=O)n3C [Compound 29, (R)-9-((1-(3-(1,1-difluoro-2-hydroxy-2-methylpropyl)-2-fluorophenyl)ethyl)amino)-1,3,7-trimethylpyrimido[4,5-g]quinazoline-2,4(1H,3H)-dione] | 0.001 to 0.01 µM | 0.001 to 0.2 µM | 0.001 to 0.03 µM
Cc1nc(N[C@H](C)c2cccc(C(F)(F)C(C)(C)O)c2F)c2cc3c(cc2n1)OC(C)(C)CN3C [Compound 34, (R)-1,1-Difluoro-1-(2-fluoro-3-(1-((2,6,8,8-tetramethyl-7,8-dihydro-6H-[1,4]oxazino [3,2-g]quinazolin-4-yl)amino)ethyl)phenyl)-2-methylpropan-2-ol] | 0.001 to 0.01 µM | 0.001 to 0.2 µM | 0.031 to 0.13 µM
Cc1nc(N[C@H](C)c2cccc(C(F)(F)CO)c2F)c2cc3c(cc2n1)OC(C)(C)CN3C [Compound 35, (R)-2,2-Difluoro-2-(2-fluoro-3-(1-((2,6,8,8-tetramethyl-7,8-dihydro-6H-[1,4]oxazino[3,2-g]quinazolin-4-yl)amino)ethyl)phenyl)ethan-1-ol] | 0.001 to 0.01 µM | 0.001 to 0.2 µM | 0.001 to 0.03 µM
Cc1nc(N[C@H](C)c2cccc(C(F)(F)C(C)(C)O)c2F)c2cc3c(cc2n1)OCC(C)(C)N3C [Compound 37, (R)-1,1-Difluoro-1-(2-fluoro-3-(1-((2,6,7,7-tetramethyl-7,8-dihydro-6H-[1,4]oxazino[3,2-g]quinazolin-4-yl)amino)ethyl)phenyl)-2-methylpropan-2-ol] | 0.001 to 0.01 µM | 0.001 to 0.2 µM | 0.001 to 0.03 µM
Cc1nc(N[C@H](C)c2cccc(C(F)(F)C(C)(C)O)c2F)c2cc3c(cc(C)c(=O)n3C)cc2n1 [Compound 38, (R)-4-((1-(3-(1,1-Difluoro-2-hydroxy-2-methylpropyl)-2-fluorophenyl)ethyl)amino)-2,6,8-trimethylpyrido[2,3-g]quinazolin-7(6H)-one] | 0.001 to 0.01 µM | 0.001 to 0.2 µM | 0.001 to 0.03 µM
Cc1nc(N[C@H](C)c2cccc(C(F)(F)C(C)(C)O)c2F)c2cc3c(cc2n1)nc(C)c(=O)n3C [Compound 39, (R)-4-((1-(3-(1,1-Difluoro-2-hydroxy-2-methylpropyl)-2-fluorophenyl)ethyl)amino)-2,6,8-trimethylpyrazino[2,3-g]quinazolin-7(6H)-one] | 0.001 to 0.01 µM | 0.001 to 0.2 µM | 0.001 to 0.03 µM
Cc1nc(N[C@H](C)c2cccc(C(F)(F)C(C)(C)O)c2F)c2cc3c(cc2n1)C(C)(C)CC(=O)N3C [Compound 42, (R)-4-((1-(3-(1,1-difluoro-2-hydroxy-2-methylpropyl)-2-fluorophenyl)ethyl)amino)-2,6,9,9-tetramethyl-8,9-dihydropyrido[2,3-g]quinazolin-7(6H)-one] | 0.001 to 0.01 µM | 0.001 to 0.2 µM | 0.001 to 0.03 µM
Cc1nc(N[C@H](C)c2cccc(C(F)(F)C(C)(C)O)c2F)c2cc3c(cc2n1)OCCN3C [Compound 45, (R)-1-(3-(1-((2,6-dimethyl-7,8-dihydro-6H-[1,4]oxazino[3,2-g]quinazolin-4-yl)amino)ethyl)-2-fluorophenyl)-1,1-difluoro-2-methylpropan-2-ol] | 0.001 to 0.01 µM | 0.001 to 0.2 µM | 0.031 to 0.13 µM
Cc1nc(N[C@H](C)c2cccc(C(F)(F)C(C)(C)O)c2F)c2cc3c(c(F)c2n1)OCC(=O)N3C [Compound 47, (R)-4-((1-(3-(1,1-difluoro-2-hydroxy-2-methylpropyl)-2-fluorophenyl)ethyl)amino)-10-fluoro-2,6-dimethyl-6H-[1,4]oxazino[3,2-g]quinazolin-7(8H)-one] | 0.011 to 0.025 µM | 0.001 to 0.2 µM | 0.031 to 0.13 µM
Cc1nc(N[C@H](C)c2cccc(C(F)(F)C(C)(O)CF)c2F)c2cc3c(cc2n1)OC(C)(C)C(=O)N3C (stereo partly drawn) [Compound 54, (R&S)-4-(((1R)-1-(2-fluoro-3-(1,1,3-trifluoro-2-hydroxy-2-methylpropyl)phenyl)ethyl)amino)-2,6,8,8-tetramethyl-6H-[1,4]oxazino[3,2-g]quinazolin-7(8H)-one] | 0.001 to 0.01 µM | 0.001 to 0.2 µM | 0.001 to 0.03 µM
CNCC(C)(O)C(F)(F)c1cccc([C@@H](C)Nc2nc(C)nc3cc4c(cc23)N(C)C(=O)C(C)(C)O4)c1F (stereo partly drawn) [Compound 55, (R&S)-4-(((1R)-1-(3-(1,1-difluoro-2-hydroxy-2-methyl-3-(methylamino)propyl)-2-fluorophenyl)ethyl)amino)-2,6,8,8-tetramethyl-6H-[1,4]oxazino[3,2-g]quinazolin-7(8H)-one] | 0.001 to 0.01 µM | 0.001 to 0.2 µM | 0.001 to 0.03 µM
Cc1nc(N[C@H](C)c2cccc(C(F)(F)C(C)(C)O)c2F)c2cc3c(cc2n1)N(C)C(=O)C31CCCC1 [Compound 58, (R)-4′-((1-(3-(1,1-difluoro-2-hydroxy-2-methylpropyl)-2-fluorophenyl)ethyl)amino)-2′,8′-dimethylspiro[cyclopentane-1,6′-pyrrolo[3,2-g]quinazolin]-7′(8′H)-one] | 0.001 to 0.01 µM | 0.001 to 0.2 µM | 0.001 to 0.03 µM
Cc1nc(N[C@H](C)c2cccc(C(F)(F)CO)c2F)c2cc3c(cc2n1)N(C)C(=O)C31CCCC1 [Compound 62, (R)-4′-((1-(3-(1,1-difluoro-2-hydroxyethyl)-2-fluorophenyl)ethyl)amino)-2′,8′-dimethylspiro[cyclopentane-1,6′-pyrrolo[3,2-g]quinazolin]-7′(8′H)-one] | 0.001 to 0.01 µM | 0.001 to 0.2 µM | 0.001 to 0.03 µM
COCCN1C(=O)C(C)(C)c2cc3nc(C)nc(N[C@H](C)c4cccc(C(F)(F)C(C)(C)O)c4F)c3cc21 [Compound 63, (R)-4-((1-(3-(1,1-difluoro-2-hydroxy-2-methylpropyl)-2-fluorophenyl)ethyl)amino)-6-(2-methoxyethyl)-2,8,8-trimethyl-6,8-dihydro-7H-pyrrolo[2,3-g]quinazolin-7-one] | 0.001 to 0.01 µM | 0.001 to 0.2 µM | 0.001 to 0.03 µM
CCN1C(=O)C(C)(C)c2cc3nc(C)nc(N[C@H](C)c4cccc(C(F)(F)C(C)(C)O)c4F)c3cc21 [Compound 64, (R)-4-((1-(3-(1,1-difluoro-2-hydroxy-2-methylpropyl)-2-fluorophenyl)ethyl)amino)-6-ethyl-2,8,8-trimethyl-6,8-dihydro-7H-pyrrolo[2,3-g]quinazolin-7-one] | 0.001 to 0.01 µM | 0.001 to 0.2 µM | 0.001 to 0.03 µM
